Results on three compounds are retold here after paper PMC10698726 (Molecular Pharmaceutics, 2023).

One data set deals with T1, OCT2 (Homo sapiens, UniProt O15244).
T1 sequence (O15244 1-555): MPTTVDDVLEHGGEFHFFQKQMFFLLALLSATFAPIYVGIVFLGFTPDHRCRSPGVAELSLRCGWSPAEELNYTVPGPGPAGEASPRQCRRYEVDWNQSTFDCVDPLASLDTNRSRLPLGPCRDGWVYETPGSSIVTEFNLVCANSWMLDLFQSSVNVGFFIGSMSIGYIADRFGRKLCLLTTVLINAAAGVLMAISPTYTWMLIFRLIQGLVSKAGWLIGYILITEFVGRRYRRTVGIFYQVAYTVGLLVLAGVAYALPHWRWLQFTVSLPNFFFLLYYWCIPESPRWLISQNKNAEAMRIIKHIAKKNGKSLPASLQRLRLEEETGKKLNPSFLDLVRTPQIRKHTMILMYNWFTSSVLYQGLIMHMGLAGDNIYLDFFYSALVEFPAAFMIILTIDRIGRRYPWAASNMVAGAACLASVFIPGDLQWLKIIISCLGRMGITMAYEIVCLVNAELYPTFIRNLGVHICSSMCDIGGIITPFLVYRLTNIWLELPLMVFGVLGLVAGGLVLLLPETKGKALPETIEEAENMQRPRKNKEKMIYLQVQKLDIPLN
In words: Inhibition of model substrate uptake in OCT2-overexpressing HEK293 cells. As to conditions: for IC50: IC50, OCT2, Table S5, 2 μM ASP+ as model substrate; for selectivity ratio at 5 min / inhibition at 5 min, 20 μM: human, OCT2-overexpressing HEK293 cells; for selectivity ratio at 5 min: pH 7.4.

A further data set has as its target T2, OCT3 (Homo sapiens, UniProt O75751).
T2 construct: expressed in transfected cells; host or cells: HEK293
T2 sequence (O75751 1-556): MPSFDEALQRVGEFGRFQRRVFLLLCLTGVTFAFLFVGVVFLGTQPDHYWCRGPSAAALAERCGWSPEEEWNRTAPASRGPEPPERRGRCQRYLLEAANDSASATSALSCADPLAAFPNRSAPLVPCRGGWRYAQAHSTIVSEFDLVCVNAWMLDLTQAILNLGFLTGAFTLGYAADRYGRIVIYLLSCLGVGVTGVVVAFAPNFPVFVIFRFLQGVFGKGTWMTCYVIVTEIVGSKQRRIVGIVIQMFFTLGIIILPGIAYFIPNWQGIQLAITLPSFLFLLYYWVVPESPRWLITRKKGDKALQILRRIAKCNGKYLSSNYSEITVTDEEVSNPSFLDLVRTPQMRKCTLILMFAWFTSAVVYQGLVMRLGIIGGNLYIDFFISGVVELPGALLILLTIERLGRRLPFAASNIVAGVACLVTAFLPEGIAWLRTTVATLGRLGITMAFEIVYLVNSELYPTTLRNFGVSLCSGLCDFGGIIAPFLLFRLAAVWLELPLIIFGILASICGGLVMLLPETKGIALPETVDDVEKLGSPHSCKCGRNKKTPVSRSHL
In words: Concentration-dependent uptake of model substrates, OCT3-overexpressing HEK293 cells. In kind it is in vitro ADME. As to conditions: vmax over Km, this study. How it is done:
Koepsell and Gorbulev (University of Würzburg, Germany).
Prior to inhibition studies, the used model substrates were validated in concentration-dependent uptake experiments if no literature data were available (Table S2 and Figures S2 and S3). Thereby, we ensured that the model substrate concentration used in the subsequent inhibition experiments was sufficiently below the Km value of its uptake kinetics. […] On the day of the experiment, the cells were washed once with prewarmed to 37 °C HBSS (Thermo Fisher Scientific, Darmstadt, Germany) supplemented with 10 mM HEPES and pH adjusted to 7.4 (Sigma-Aldrich)—hereafter termed HBSS+. For concentration-dependent experiments, the cells were incubated with increasing substrate concentrations for 2 min. Uptake was terminated by adding ice-cold HBSS+. Afterward, the cells were washed twice with ice-cold HBSS+, and cell lysis was done with 80% (v/v) acetonitrile (LGC Standards, Wesel, Germany) to which an internal standard for eventual LC–MS/MS analysis had been added. Intracellularly accumulated substrates were then quantified by LC–MS/MS analysis, and calibration was performed with known concentrations of the respective substances. All uptake data were normalized to the number of seeded cells by measuring the total protein content in radioimmunoprecipitation assay buffer-lysed cells in a bicinchoninic acid assay.[29]

[1] abbreviates: pH 7.4, probe ASP+ (2 μM), ASP+ inhibition [%], OCT2, 20 μM inhibitor, 2 μM ASP+, 5 min.
Setting [2] is: pH 7.4, probe (S,S)-ethambutol (2 μM), (S,S)-Ethambutol inhibition [%], OCT2, 20 μM inhibitor, 2 μM (S,S)-ethambutol, 5 min.
Where [3] appears, read: pH 7.4, probe N-ethyllidocaine (2 μM), N-Ethyllidocaine inhibition [%], OCT2, 20 μM inhibitor, 2 μM N-ethyllidocaine, 5 min.

Usually IC50 stands for the point on the concentration scale where inhibition reaches its midpoint. A lower IC50 goes with greater potency in that assay. The term inhibition denotes the percentage by which the read-out fell short of the control. Low values mean a response near the control, high ones a response far below the control. Consider `CCN(CC)CC#CCOC(=O)[C@](O)(c1ccccc1)C1CCCCC1` [(R)-Oxybutynine], for which the IC50 at OCT2 (5 min) turned out to be 31.8 µM. Further, the “(S,S)-Ethambutol inhibition [%]” value at OCT2 (OCT2, 20 μM inhibitor, 2 μM (S,S)-ethambutol, 5 min) was 7.4%. On OCT2 (OCT2, 20 μM inhibitor, 2 μM N-ethyllidocaine, 5 min), the “N-Ethyllidocaine inhibition [%]” value stood at 28.2%. Moreover, the selectivity ratio at 5 min on OCT2 came to 1.6. At OCT2 (setting [1]), the inhibition at 5 min, 20 μM turned out to be 86.1%.
For the compound `CCCN[C@H]1CCc2nc(N)sc2C1` [(S)-Pramipexole], the IC50 against OCT2 (5 min) came out at 82.4 µM. Further, the selectivity ratio at 5 min on OCT2 worked out at 4. Also, the inhibition at 5 min, 20 μM on OCT2 (setting [2]) is 15.8%; against OCT2 (setting [1]), 16.4%; against OCT2 (setting [3]) it was 19.6%.
Regarding `CN(C)CCc1c[nH]c2ccc(C[C@H]3COC(=O)N3)cc12` [(S)-Zolmitriptan], the “Clint ± SEM” value at OCT3 stood at 24.0. Moreover, the results for the inhibition at 5 min, 20 μM against OCT2 (setting [2]), on OCT2 (setting [1]) and against OCT2 (setting [3]) were 13.3%, 17.2% and 7.3%, respectively.
